# Measurements: PMC4014323, “Structure of tyrosine aminotransferase from Leishmania infantum” (Acta Crystallographica. Section F, Structural Biology …, 2014)
# T1: LiTAT_truncated (Leishmania infantum, UniProt A4IDL0)
# T1 construct: gene TAT; E. coli BL21(DE3) pLysS; homodimer; model Ser40-Lys448
# T1 sequence (A4IDL0 39-448): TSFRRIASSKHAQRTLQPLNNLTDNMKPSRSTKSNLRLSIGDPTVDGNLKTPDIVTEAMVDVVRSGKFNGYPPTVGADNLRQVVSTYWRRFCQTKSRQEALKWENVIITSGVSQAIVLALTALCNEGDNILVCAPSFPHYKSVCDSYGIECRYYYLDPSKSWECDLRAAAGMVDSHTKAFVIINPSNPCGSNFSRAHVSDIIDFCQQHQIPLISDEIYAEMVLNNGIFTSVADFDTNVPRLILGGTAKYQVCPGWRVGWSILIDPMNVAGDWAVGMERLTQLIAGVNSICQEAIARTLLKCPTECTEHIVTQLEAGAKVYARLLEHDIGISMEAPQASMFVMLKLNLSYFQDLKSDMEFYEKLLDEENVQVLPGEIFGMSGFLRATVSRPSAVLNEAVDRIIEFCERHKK
# B1: Leishmania infantum tyrosine aminotransferase, truncated (lacking the first 114 nucleotides of the annotated sequence) (domain or fragment, UniProt A4IDL0 39-448, looked up)
# chain: T1 sequence (A4IDL0 39-448)
# modifications: PLP covalently bound to Lys286
# notes: residues Ser40-Lys448 built in chain A of the crystal structure; they are worked out from the deletion of the first 114 nucleotides of a protein of 448 amino acids; source: E. coli BL21 (DE3) pLysS, purified (HisTrap FF, Superdex 75 SEC); not shown: His tag (from the vector pRSET-A)
# B2: Leishmania infantum tyrosine aminotransferase, full length (enzyme, UniProt A4IDL0 1-448, looked up)
# chain: MTIDTQAAPAAQTLKAGNSTGSLTEERREVEQQRAAENTSFRRIASSKHAQRTLQPLNNLTDNMKPSRSTKSNLRLSIGDPTVDGNLKTPDIVTEAMVDVVRSGKFNGYPPTVGADNLRQVVSTYWRRFCQTKSRQEALKWENVIITSGVSQAIVLALTALCNEGDNILVCAPSFPHYKSVCDSYGIECRYYYLDPSKSWECDLRAAAGMVDSHTKAFVIINPSNPCGSNFSRAHVSDIIDFCQQHQIPLISDEIYAEMVLNNGIFTSVADFDTNVPRLILGGTAKYQVCPGWRVGWSILIDPMNVAGDWAVGMERLTQLIAGVNSICQEAIARTLLKCPTECTEHIVTQLEAGAKVYARLLEHDIGISMEAPQASMFVMLKLNLSYFQDLKSDMEFYEKLLDEENVQVLPGEIFGMSGFLRATVSRPSAVLNEAVDRIIEFCERHKK
# notes: Tyrosine aminotransferase of Leishmania infantum (MHOM/ES/98/10445), full-length gene LinJ.36.2490 encoding 448 amino acids; Cloned BamHI/HindIII into pRSET-A; PLP (4 uM) was in the lysis and IMAC buffers; also called LiTAT; TAT; source: E. coli BL21 (DE3) pLysS, purified (HisTrap FF, Superdex 75 SEC); not shown: His tag (from the vector pRSET-A)
# What was measured:
# LiTAT_truncated [1] = molecular target: T1, LiTAT_truncated; assay: Diamondstone p-hydroxybenzaldehyde assay; type: biochemical
# LiTAT_truncated [2] = molecular target: T1, LiTAT_truncated; assay: X-ray crystallography, […] A; type: binding; settings: covalent, internal aldimine at Lys286; crystals at pH 8.5
# [3] = molecular target: the molecule itself; assay: SEC; HiLoad 26/60 Superdex 75 prep grade, room temperature, 20 mM HEPES pH 7.0, 300 mM NaCl, 5% glycerol, 1 mM TCEP; molecular weight estimated from a calibration curve (Low Molecular Weight Kit)
molecule,measurement,setting,value
CC(=O)C(=O)O [pyruvate],Diamondstone p-hydroxybenzaldehyde assay,"LiTAT_truncated [1]; amino acceptor, co-substrate tyrosine",it can transaminate pyruvate with high efficiency
N[C@@H](Cc1ccc(O)cc1)C(=O)O [tyrosine],Diamondstone p-hydroxybenzaldehyde assay,"LiTAT_truncated [1]; amino donor, co-substrate pyruvate",using tyrosine as the amino donor
Cc1ncc(COP(=O)(O)O)c(C=O)c1O [PLP],"X-ray crystallography, 2.35 A",LiTAT_truncated [2],"In both subunits of LiTAT, PLP is covalently bound to Lys286"
B1,stoichiometry N,[3],2
B2,stoichiometry N,[3],2
